These are literature values, as cited in patent publication US20220331279A1, “THERAPEUTIC METHODS AND COMPOSITIONS FOR TREATING CANCER USING 6,8-BIS-BENZYLTHIO-OCTANOIC ACID AND A GLUTAMINASE INHIBITOR” (Rafael Pharmaceuticals, lnc., priority 2019, published 2022).

The structures appear in SMILES notation.

For this series the following is noted: after IV dosing; Pardee, T. S. et al., Clin. Cancer Res. 2014, 20, 5255-64.

On to `O=C(O)CCCCC(CCSCc1ccccc1)SCc1ccccc1` (stereo not shown) [6,8-bis-benzylthio-octanoic acid], for which the half-life (usually how long it takes for the measured level to halve) is 1 to 2 h.
